System: NCI-H358 (KRAS^G12C mutation) cell
Assay: Cell assay of antiproliferative activity against NCI-H358 cell (Celltiter-Glo, 5 days)
Format: cell-based
Conditions: 5 days incubation
Experimental: Cell Assay of Antiproliferative Activity of Compounds Against NCI-H358 (KRAS^G12C Mutation) Cell.
40 μL phosphate buffer was added to the outer wells of the 384 microplate, and 40 μL cell suspension to be tested was added to the other wells. Then the microplate was incubated in a carbon dioxide incubator overnight.
The compounds to be tested were gradiently diluted, each compound was performed 10 concentration gradients (diluted from 50 μM to 0.003 μM) and added 100 nL to the corresponding wells in the microplate. After addition, 40 μl of phosphate buffer was added to each well in rows A and P and columns 1 and 24, and then the microplate was incubated in a carbon dioxide incubator for 5 days.
20 μL of Promega Celltiter-Glo reagent was added to each well of the microplate, and then the luminescence signal was stabilized by oscillating at room temperature for 10 min. Then PekinElmer Envision multi-label analyzer was used to read.
Finally, GraphPad Prism software was used to calculate the IC50 value of the compound and the fitting curve was drawn.
Anti-proliferative activity of the compounds of the present invention against NCI-H358 (KRAS^G12C mutation) cell was shown in Table 1.

Row | SMILES | IC50 [nM] | IC50 (Homo sapiens, NCI-H358, 120 h) [nM]
1 | C=CC(=O)N1CCN(c2nc(=O)n(-c3c(S(C)(=O)=O)ccnc3C(C)C)c3nc(-c4c(O)cccc4F)c(F)cc23)[C@@H](C)C1 [Example 18, 4-((S)-4-acryloyl-2-methylpiperazin-1-yl)-6-fluoro-7-(2-fluoro-6-hydroxyphenyl)-1-(2-isopropyl-4-(methylsulfonyl)pyridin-3-yl)pyridino[2,3-d]pyrimidin-2 (1H)-one] | 30 | 
2 | C=CC(=O)N1CCN(c2nc(=O)n(-c3c(C(C)C)cccc3S(C)(=O)=O)c3nc(-c4ccc(C#N)cc4Cl)c(F)cc23)[C@@H](C)C1 [Example 66, (S)-4-(4-(4-acryloyl-2-methylpiperazin-1-yl)-6-fluoro-1-(2-isopropyl-6-(methylsulfonyl)phenyl)-2-oxo-1,2-dihydropyridino [2,3-d]pyrimidin-7-yl)-3-chlorobenzonitrile] |  | > 10000
3 | C=CC(=O)N1CCN(c2nc(=O)n(-c3c(C)cccc3N(C)S(C)(=O)=O)c3nc(-c4c(O)cccc4F)c(F)cc23)[C@@H](C)C1 [Example 11] |  | 180
4 | C=CC(=O)N1CCN(c2nc(=O)n(-c3c(C(C)C)ccnc3S(C)(=O)=O)c3nc(-c4c(F)cccc4OC(C)=O)c(F)cc23)[C@@H](C)C1 [Example 24] | 28 | 
5 | C=CC(=O)N1C[C@H](C)N(c2nc(=O)n(-c3c(CC)cccc3S(=O)(=O)C(C)C)c3nc(-c4c(O)cccc4F)c(F)cc23)C[C@H]1C (single isomer, unassigned) [Example 82B] | 50 | 
6 | C=CC(=O)N1CCN(c2nc(=O)n(-c3c(C4CC4)cccc3S(C)(=O)=O)c3nc(-c4ccccc4Cl)c(F)cc23)[C@@H](C)C1 [Example 17, (S)-4-(4-acryloyl-2-methylpiperazin-1-yl)-7-(2-chlorophenyl)-1-(2-cyclopropyl-6-(methylsulfonyl)phenyl)-6-fluoropyridino [2,3-d] pyrimidin-2(1H)-one] |  | 31
7 | C=CC(=O)N1CCN(c2nc(=O)n(-c3c(C(C)C)cccc3S(C)(=O)=O)c3nc(-c4c(F)cccc4OC(C)=O)c(F)cc23)[C@@H](C)C1 (single isomer, unassigned) [Example 31A] | 300 | 
8 | C=CC(=O)N1CCN(c2nc(=O)n(-c3c(C(C)C)cccc3S(C)(=O)=O)c3nc(-c4c(O)cccc4F)c(F)cc23)[C@@H](C)C1 [Example 10, 4-((S)-4-acryloyl-2-methylpiperazin-1-yl)-6-fluoro-7-(2-fluoro-6-hydroxyphenyl)-1-(2-isopropyl-6-(methylsulfonyl)phenyl) pyridino[2,3-d] pyrimidin-2(1H)-one] |  | 10
9 | C=CC(=O)N1CCN(c2nc(=O)n(-c3ccccc3S(C)(=O)=O)c3nc(-c4c(O)cccc4F)c(F)cc23)[C@@H](C)C1 [Example 85, 4-((S)-4-acryloyl-2-methylpiperazin-1-yl)-6-fluoro-7-(2-fluoro-6-hydroxyphenyl)-1-(2-(methylsulfonyl)phenyl) pyridino[2,3-d] pyrimidin-2(1H)-one] |  | < 1000
10 | C=CC(=O)N1C[C@H](C)N(c2nc(=O)n(-c3c(C4CCC4)cccc3S(C)(=O)=O)c3nc(-c4c(O)cccc4F)c(F)cc23)C[C@H]1C [Example 63A] |  | 370
11 | C=CC(=O)N1CCN(c2nc(=O)n(-c3c(C(C)C)cccc3S(C)(=O)=O)c3nc(-c4cc(C#N)ccc4Cl)c(F)cc23)[C@@H](C)C1 [Example 64, (S)-3-(4-(4-acryloyl-2-methylpiperazin-1-yl)-6-fluoro-1-(2-isopropyl-6-(methylsulfonyl)phenyl)-2-oxo-1,2-dihydropyridino[2,3-d]pyrimidin-7-yl)-4-chlorobenzonitrile] |  | 120
12 | C=CC(=O)N1CCN(c2nc(=O)n(-c3cccnc3S(C)(=O)=O)c3nc(-c4c(O)cccc4F)c(F)cc23)CC1CC#N (stereo not shown) [Example 58, 2-(1-acryloyl-4-(6-fluoro-7-(2-fluoro-6-hydroxyphenyl)-1-(2-(methylsulfonyl)pyridin-3-yl)-2-oxo-1,2-dihydropyridino [2,3-d]pyrimidin-4-yl)piperazin-2-yl) acetonitrile] |  | 10000
13 | C=CC(=O)N1CCN(c2nc(=O)n(-c3c(C(C)C)cncc3S(C)(=O)=O)c3nc(-c4c(O)cccc4F)c(F)cc23)[C@@H](C)C1 [Example 29] |  | 53
14 | C=C(F)C(=O)N1CCN(c2nc(=O)n(-c3c(C(C)C)cccc3S(C)(=O)=O)c3nc(-c4c(O)cccc4F)c(F)cc23)[C@@H](C)C1 [Example 21] |  | 1200
15 | C=CC(=O)N1CCN(c2nc(=O)n(-c3cccnc3S(C)(=O)=O)c3nc(-c4c(O)cccc4F)c(F)cc23)[C@@H](C)C1 [Example 54, 4-((S)-4-acryloyl-2-methylpiperazin-1-yl)-6-fluoro-7-(2-fluoro-6-hydroxyphenyl)-1-(2-(methylsulfonyl)pyridin-3-yl) pyridino [2,3-d] pyrimidin-2(1H)-one] | 2500 | 
16 | C=CC(=O)N1CCN(c2nc(=O)n(-c3c(C(C)C)cccc3S(C)(=O)=O)c3nc(-c4ccccc4Cl)c(F)cc23)[C@@H](C)C1 (single isomer, unassigned) [Example 30B] | 11 | 
17 | C=CC(=O)N1CCN(c2nc(=O)n(-c3c(S(C)(=O)=O)ccnc3C(C)C)c3nc(-c4c(O)cccc4F)c(F)cc23)[C@@H](C)C1 (single isomer, unassigned) [Example 18B] | 460 | 
18 | C=CC(=O)N1C[C@H](C)N(c2nc(=O)n(-c3c(CC)cccc3S(C)(=O)=O)c3nc(-c4c(O)cccc4F)c(Cl)cc23)C[C@H]1C (single isomer, unassigned) [Example 84B] | 6 | 
19 | C=CC(=O)N1CCN(c2nc(=O)n(-c3cnccc3S(C)(=O)=O)c3nc(-c4c(O)cccc4F)c(F)cc23)[C@@H](C)C1 [Example 55] |  | 5300
20 | C=CC(=O)N1CCN(c2nc(=O)n(-c3c(CC)cccc3S(C)(=O)=O)c3nc(-c4c(O)cccc4F)c(F)cc23)[C@@H](C)C1 (single isomer, unassigned) [Example 5B] | 11 | 
21 | C=CC(=O)N1CCN(c2nc(=O)n(-c3c(C)cccc3S(C)(=O)=O)c3nc(-c4c(O)cccc4F)c(F)cc23)[C@@H](C)C1 [Example 87, 4-((S)-4-acryloyl-2-methylpiperazin-1-yl)-6-fluoro-7-(2-fluoro-6-hydroxyphenyl)-1-(2-methyl-6-(methylsulfonyl)phenyl) pyridino[2,3-d] pyrimidin-2(1H)-one] |  | < 100
22 | C=CC(=O)N1CCN(c2nc(=O)n(-c3c(C4CC4)cccc3S(C)(=O)=O)c3nc(-c4ccccc4F)c(F)cc23)[C@@H](C)C1 [Example 13, (S)-4-(4-acryloyl-2-methylpiperazin-1-yl)-1-(2-cyclopropyl-6-(methylsulfonyl)phenyl)-6-fluoro-7-(2-fluorophenyl) pyridin [2,3-d] pyrimidin-2(1H)-one] |  | 15
23 | C=CC(=O)N1CCN(c2nc(=O)n(-c3c(C)cccc3S(=O)(=O)C3CC3)c3nc(-c4c(O)cccc4F)c(F)cc23)[C@@H](C)C1 [Example 7, 4-((S)-4-acryloyl-2-methylpiperazin-1-yl)-1-(2-(cyclopropylsulfonyl)-6-methylphenyl)-6-fluoro-7-(2-fluoro-6-hydroxyphenyl) pyridino [2,3-d] pyrimidin-2(1H)-one] |  | 240
24 | C=CC(=O)N1CCN(c2nc(=O)n(-c3c(CC)cccc3S(=O)(=O)C(C)C)c3nc(-c4c(O)cccc4F)c(F)cc23)[C@@H](C)C1 (single isomer, unassigned) [Example 83B] | 26 | 
25 | C=CC(=O)N1CCN(c2nc(=O)n(-c3c(C(C)C)cccc3S(C)(=O)=O)c3nc(-c4ccccc4Cl)c(F)cc23)[C@@H](C)C1 (single isomer, unassigned) [Example 30A] | 740 | 

From US20230118795A1, “ARYL OR HETEROARYL PYRIDONE OR PYRIMIDINE DERIVATIVE, PREPARATION METHOD AND USE THEREOF” (SUZHOU ZELGEN BIOPHARMACEUTICALS CO., LTD., priority 2020, published 2023)
